Data as given in PubChem BioAssay (NCI).
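Grown in 96-well plates, cells were treated for 48 hours with each compound at five concentrations. Insufficient inhibition: endpoint recorded as highest concentration tested. TGI denotes the concentration required for complete inhibition of growth.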

Experiments:
Experiment in all cases: DTP human tumour cell line panel, 48 h
SNB-78 CNS = system: SNB-78 CNS
DMS 273 small cell lung = system: DMS 273 small cell lung
SNB-75 CNS = system: SNB-75 CNS
KM20L2 colon = system: KM20L2 colon
UO-31 renal = system: UO-31 renal
CCRF-CEM leukemia = system: CCRF-CEM leukemia
KM12 colon = system: KM12 colon
K-562 leukemia = system: K-562 leukemia
RXF-631 renal = system: RXF-631 renal
M14 melanoma = system: M14 melanoma
HOP-18 NSCLC = system: HOP-18 NSCLC
SN12C renal = system: SN12C renal
HCC-2998 colon = system: HCC-2998 colon
NCI-H522 lung = system: NCI-H522 lung
RPMI-8226 leukemia = system: RPMI-8226 leukemia
HCT-116 colon = system: HCT-116 colon
SNB-19 CNS = system: SNB-19 CNS
SF-539 CNS = system: SF-539 CNS
ACHN renal = system: ACHN renal

| Structure (SMILES) | TGI (SNB-78 CNS) [µM] | TGI (DMS 273 small cell lung) [µM] | TGI (SNB-75 CNS) [µM] | TGI (KM20L2 colon) [µM] | TGI (UO-31 renal) [µM] | TGI (CCRF-CEM leukemia) [µM] | TGI (KM12 colon) [µM] | TGI (K-562 leukemia) [µM] | TGI (RXF-631 renal) [µM] | TGI (M14 melanoma) [µM] | TGI (HOP-18 NSCLC) [µM] | TGI (SN12C renal) [µM] | TGI (HCC-2998 colon) [µM] | TGI (NCI-H522 lung) [µM] | TGI (RPMI-8226 leukemia) [µM] | TGI (HCT-116 colon) [µM] | TGI (SNB-19 CNS) [µM] | TGI (SF-539 CNS) [µM] | TGI (ACHN renal) [µM] |
| --- | --- | --- | --- | --- | --- | --- | --- | --- | --- | --- | --- | --- | --- | --- | --- | --- | --- | --- | --- |
| COc1cc2c(cc1O)C1C(O)C(O)C=C3CCN(C2)C31 (stereo not given) | 9.27 | 8.24 | 9.69 | 18.3 | 9.04 | 72.6 | 11 | > 100 | 28.2 | 4.46 | 8.19 | 14.6 | 8.44 | 4.29 | 11.7 | 2.25 | 10.1 | 4.68 | 7.87 |
| COc1cccc2c1C(=O)c1c(O)c3c(c(O)c1C2=O)C[C@@](O)(C(=O)CO)C[C@@H]3OC1CC(N)C(OC)C(C)O1 (stereo not given in full) | 16.9 | 1.4 | 0.346 | 4.83 | 1.41 | 0.176 | 0.931 | 0.0483 | 0.747 | 0.996 | 0.977 | 0.644 | 0.763 | 0.45 | 0.374 | > 100 | > 15.8 | 0.449 | 0.765 |
| Cc1c(O)c(C)c2c(C)cn(C(=O)C(C)(C)C)c2c1C | – | – | 34.1 | – | 79.6 | 55.7 | 27.2 | 98.2 | – | 30.5 | – | 31.8 | 96.6 | 56.2 | 84.5 | 45.3 | 65.5 | 30 | 35.3 |
| CC(NNC(=O)CC(=O)N(C(=O)c1ccccc1)c1ccc(Cl)cc1)c1cc2ccccc2oc1=O (stereo not given) | – | – | > 10 | – | 0.275 | > 10 | > 10 | > 10 | – | > 10 | – | > 10 | > 10 | > 10 | > 10 | > 10 | > 10 | > 10 | > 10 |
| COC(=O)C1(OC(=O)Sc2ccccc2)CCN(C)CC1 | – | – | 40.1 | – | 20.8 | 19.7 | > 47.4 | 61.1 | – | > 58.6 | – | 21.3 | > 73 | 35.1 | 35 | 53.6 | > 100 | 26.5 | > 54.1 |
| O=C(O)c1cccnc1 | – | – | > 100 | – | > 100 | > 100 | > 100 | > 100 | – | > 100 | – | > 100 | > 100 | > 100 | > 100 | > 100 | > 100 | > 100 | > 100 |
| C[C@H]1C2Cc3cc(N)ccc3[C@@]1(C)CCN2CCc1ccccc1 | – | – | > 100 | – | > 100 | > 100 | > 100 | > 100 | – | 40 | – | > 100 | 21.7 | 31.5 | > 100 | > 100 | > 100 | > 100 | > 100 |
| CN(C)/C=N/n1c2ccccc2c2ccccc21 | – | – | > 100 | – | > 100 | > 100 | > 100 | > 100 | – | > 100 | – | > 100 | > 100 | > 100 | > 100 | > 100 | > 100 | > 100 | > 100 |
| O=C(NCCCN(CCCCN(CCCNC(=O)C(F)(F)F)CCCc1ccccc1)CCCc1ccccc1)C(F)(F)F | – | – | 2.56 | – | 2.52 | 18.8 | 3.65 | > 100 | – | 3.25 | – | 5.8 | 3.27 | 3.51 | 7.97 | 5.9 | 4.17 | 3.16 | 3.42 |
| NC12Oc3cc(O)cc(O)c3C1(c1ccc(Cl)cc1)c1c(O)cc(O)cc1O2 (stereo not given) | – | – | > 100 | – | > 100 | > 100 | > 100 | > 100 | – | > 100 | – | > 100 | > 100 | 92.9 | > 100 | > 100 | > 100 | > 100 | > 100 |
